Key:
YlTrm9N19-Trm112 = YlTrm9N19-Trm112 (Yarrowia lipolytica, UniProt Q6C999)
YlTrm9N38-Trm112 = YlTrm9N38-Trm112 (Yarrowia lipolytica, UniProt Q6C999)
[1] = target: YlTrm9-Trm112 (full-length) (Yarrowia lipolytica, UniProt Q6C999)
YlTrm9-Trm112 (full-length), sequence (Q6C999 1-234): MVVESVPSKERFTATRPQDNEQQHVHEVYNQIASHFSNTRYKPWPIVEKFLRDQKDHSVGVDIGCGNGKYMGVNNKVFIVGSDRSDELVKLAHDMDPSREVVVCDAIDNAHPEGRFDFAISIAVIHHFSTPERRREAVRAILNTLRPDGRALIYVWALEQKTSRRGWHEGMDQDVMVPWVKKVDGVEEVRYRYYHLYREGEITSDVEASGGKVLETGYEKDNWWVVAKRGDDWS
YlTrm9-Trm112 (full-length), sequence (Q6C4P5 1-130 partner): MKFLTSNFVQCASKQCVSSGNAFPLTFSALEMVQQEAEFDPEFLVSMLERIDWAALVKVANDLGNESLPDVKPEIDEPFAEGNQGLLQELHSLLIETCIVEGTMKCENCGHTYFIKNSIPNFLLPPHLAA

YlTrm9N19-Trm112, sequence (Q6C999 19-234): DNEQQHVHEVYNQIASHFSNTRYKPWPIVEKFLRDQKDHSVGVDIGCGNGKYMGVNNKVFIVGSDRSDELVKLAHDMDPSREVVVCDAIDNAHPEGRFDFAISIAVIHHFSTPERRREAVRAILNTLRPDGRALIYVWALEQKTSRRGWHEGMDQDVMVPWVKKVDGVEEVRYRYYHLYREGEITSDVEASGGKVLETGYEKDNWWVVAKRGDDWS
YlTrm9N19-Trm112, sequence (Q6C4P5 1-130 partner): as the sequence (Q6C4P5 1-130 partner) above
YlTrm9N38-Trm112, sequence (Q6C999 38-234): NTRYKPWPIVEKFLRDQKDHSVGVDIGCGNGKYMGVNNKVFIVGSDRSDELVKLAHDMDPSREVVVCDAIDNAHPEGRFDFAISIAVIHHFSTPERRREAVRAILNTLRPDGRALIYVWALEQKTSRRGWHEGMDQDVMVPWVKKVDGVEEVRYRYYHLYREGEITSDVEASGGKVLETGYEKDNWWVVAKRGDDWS
YlTrm9N38-Trm112, sequence (Q6C4P5 1-130 partner): as the sequence (Q6C4P5 1-130 partner) above

affinity for SAM (YlTrm9N38-Trm112): displayed the same affinity for SAM
affinity for SAM [1]: displayed the same affinity for SAM
Compound: C[S+](CC[C@H](N)C(=O)O)C[C@H]1O[C@@H](n2cnc3c(N)ncnc32)[C@H](O)[C@@H]1O (stereo partly drawn) [SAM]
affinity for SAM (YlTrm9N19-Trm112): both truncated forms were strongly affected in their enzymatic activity

From paper PMC4678810 (Nucleic Acids Research, 2015)
